Measurements from US20250049806A1, “PHARMACEUTICAL COMPOSITION FOR PROVIDING TREATMENT FOR OR PREVENTING ALPORT SYNDROME” (UBE Corporation, priority 2021, published 2025).

Assay: Transcellular transport test using Caco2 cell
Type: in vitro ADME
Conditions: human, Caco-2, apical-to-basolateral (A-to-B), pH=7.4, 10 µM compound
Procedure: Caco2 cells (purchased from ATCC) were cultured in DMEM medium (Thermo Fisher Scientific, Inc., 11965) containing 10% FBS (Thermo Fisher Scientific, Inc., 10082) and 1% penicillin/streptomycin/amphotericin B (Thermo Fisher Scientific, Inc., 15240). A transcellular transport test was carried out in accordance with MultiScreen Caco2 Drug Transport Assembly in a 96-well system (Application Note AN1727EN, MultiScreen Caco-2 Assay System, Merck) by partially modifying it. The Caco2 cells were inoculated at a cell density of 4×10^4 cells/well onto a micropore polycarbonate insert of a 96-well plate (Merck, Millcell-96 culture insert plate 0.4 μm pore size, well membrane area=0.11 cm^2, PSHT004S5) and cultured for 20 to 22 days, and the resulting monolayer was used in the transcellular transport test. The medium of the inoculated cells was replaced with a fresh one every 3 to 4 days.
Apical-to-basolateral (A-to-B) transport in the Caco2 cell monolayer membrane was performed by using HBSS (Thermo Fisher Scientific, Inc., 14025) medium (pH=7.4) containing 20 mM HEPES (Thermo Fisher Scientific, Inc., 15630), and adding HEPES-containing HBSS medium containing 10 µM compound (a 10 mM solution of the compound in DMSO was added at a 1000-fold dilution; final DMSO concentration: 0.1%) at 75 μL/well to the apical side and HEPES-containing HBSS medium supplemented with no compound at 250 μL/well to the basolateral side, followed by culture at 37° C. for 90 minutes. After culture, a 100 μL aliquot was collected from the basolateral side, and the concentration of a permeated compound was measured by LC-MS/MS under measurement conditions mentioned later. Papp (apparent permeability; cm/sec) was calculated from the determined concentration. Papp was determined according to the expression given below by calculating the slope (dA/dt; nmol/sec) of a straight line drawn between two points 0 minutes and zero amount of the compound in a graph plotted with an assay time (90 min) on the abscissa against the amount of the compound in the solution on the permeated side on the ordinate. As for an assay concentration, the concentration in the compound in the HEPES-containing HBSS medium containing the added compound was measured by UV-HPLC under measurement conditions mentioned later.
C0: assay concentration, S: plate membrane area=0.11 cm^2
• LC: LC20 or LC30 HPLC system manufactured by Shimadzu Corp. • Column: Phenomenex Kinetex C18 (50 mm×2.1 mm, 2.6 μm) • Column temperature: 40° C. • Flow rate: 0.3 mL/min • Mobile phase A: 0.1% aqueous formic acid solution • Mobile phase B: 0.1% formic acid, 50% acetonitrile/methanol mixed solution • Gradient: 0-2 min; A/B=90/10 to 10/90, 2-3 min; A/B=10/90, 3-3.01 min; A/B=10/90 to 90/10 • MS: Q-Trap3200 manufactured by AB Sciex Pte. Ltd. • Ionization: ESI • Mode: Positive
• LC: LC20 or LC30 HPLC system manufactured by Shimadzu Corp. • Column: Phenomenex Kinetex C18 (100 mm×2.1 mm, 2.6 μm) • Column temperature: 40° C. • Flow rate: 0.25 mL/min • Mobile phase A: 0.1% aqueous formic acid solution • Mobile phase B: 0.1% formic acid, 50% acetonitrile/methanol mixed solution • Gradient: 0-3 min; A/B=90/10, 3-11 min; A/B=90/10 to 5/95, 11-15 min; A/B=5/95, 15-15.1 min; A/B=5/95 to 90/10 • UV detector: photodiode array detector
A: Papp>1×10^−6 (cm/sec), B: 1×10^−6 (cm/sec)≥Papp>5×10^−7 (cm/sec), C: 5×10^−7 (cm/sec)≥Papp>1×10^−7 (cm/sec), or D: Papp≤1×10^−7 (cm/sec).
`O=C(O)C[C@H](NC(=O)CNC(=O)c1cc(NC2=NCC(F)CN2)c2cn[nH]c2c1)c1cccc(N2CCOCC2)c1` (stereo partly drawn) [45-(b), (3S)-3-(2-(4-((5-fluoro-1,4,5,6-tetrahydropyrimidin-2-yl)amino)-1H-indazole-6-carboxamido)acetamido)-3-(3-morpholinophenyl)propanoic acid] showed a Papp A→B at 90 min, 10 µM of 0.5 to 1 ×10⁻⁶ cm/s.
For `O=C(O)C[C@H](NC(=O)CNC(=O)c1cc(NC2=NCC(F)CN2)c2cn[nH]c2c1)c1cc(Br)cc(I)c1` (stereo partly drawn) [20-(b), (3S)-3-(3-bromo-5-iodophenyl)-3-(2-(4-((5-fluoro-1,4,5,6-tetrahydropyrimidin-2-yl)amino)-1H-indazole-6-carboxamido)acetamido)propanoic acid], the Papp A→B at 90 min, 10 µM was over 1 ×10⁻⁶ cm/s.
With `O=C(O)C[C@H](NC(=O)CNC(=O)c1cc(NC2=NCC(F)CN2)c2cn[nH]c2c1)c1cc(Cl)cc(Cl)c1` (stereo partly drawn) [17-(b), (3S)-3-(3,5-dichlorophenyl)-3-(2-(4-((5-fluoro-1,4,5,6-tetrahydropyrimidin-2-yl)amino)-1H-indazole-6-carboxamido)acetamido)propanoic acid] the Papp A→B at 90 min, 10 µM was over 1 ×10⁻⁶ cm/s.
`O=C(O)C[C@H](NC(=O)CNC(=O)c1cc(NC2=NCC(F)CN2)c2cn[nH]c2c1)c1cccc(Br)c1` (stereo partly drawn) [42-(b), (3S)-3-(3-bromophenyl)-3-(2-(4-((5-fluoro-1,4,5,6-tetrahydropyrimidin-2-yl)amino)-1H-indazole-6-carboxamido)acetamido)propanoic acid] gave a Papp A→B at 90 min, 10 µM of over 1 ×10⁻⁶ cm/s.
For `O=C(O)C[C@H](NC(=O)CNC(=O)c1cc(NC2=NCC(O)CN2)c2cn[nH]c2c1)c1cc(Cl)cc(C(F)(F)F)c1` (stereo partly drawn) [50-(b), (3S)-3-(3-chloro-5-(trifluoromethyl)phenyl)-3-(2-(4-((5-hydroxy-1,4,5,6-tetrahydropyrimidin-2-yl)amino)-1H-indazole-6-carboxamido)acetamido)propanoic acid], the Papp A→B at 90 min, 10 µM was over 1 ×10⁻⁶ cm/s.
`COc1ccc([C@H](CC(=O)O)NC(=O)CNC(=O)c2cc(NC3=NCC(F)CN3)c3cn[nH]c3c2)cc1Br` (stereo partly drawn) [16-(b), (3S)-3-(3-bromo-4-methoxyphenyl)-3-(2-(4-((5-fluoro-1,4,5,6-tetrahydropyrimidin-2-yl)amino)-1H-indazole-6-carboxamido)acetamido)propanoic acid] showed a Papp A→B at 90 min, 10 µM of over 1 ×10⁻⁶ cm/s.
Molecule `O=C(O)C[C@H](NC(=O)CNC(=O)c1cc(NC2=NCC(F)CN2)c2cn[nH]c2c1)c1cccc(C2CC2)c1` (stereo partly drawn) [39-(b), (3S)-3-(3-cyclopropylphenyl)-3-(2-(4-((5-fluoro-1,4,5,6-tetrahydropyrimidin-2-yl)amino)-1H-indazole-6-carboxamido)acetamido)propanoic acid] has a Papp A→B at 90 min, 10 µM of over 1 ×10⁻⁶ cm/s.
`O=C(O)C[C@H](NC(=O)CNC(=O)c1cc(NC2=NCC(F)CN2)c2cn[nH]c2c1)c1cc(F)cc(C(F)(F)F)c1` (stereo partly drawn) [6-(b), (3S)-3-(2-(4-((5-fluoro-1,4,5,6-tetrahydropyrimidin-2-yl)amino)-1H-indazole-6-carboxamido)acetamido)-3-(3-fluoro-5-(trifluoromethyl)phenyl)propanoic acid] showed a Papp A→B at 90 min, 10 µM of over 1 ×10⁻⁶ cm/s.
`Cc1cc([C@H](CC(=O)O)NC(=O)CNC(=O)c2cc(NC3=NCC(F)CN3)c3cn[nH]c3c2)cc(C(F)(F)F)c1` (stereo partly drawn) [4-(b), (3S)-3-(2-(4-((5-fluoro-1,4,5,6-tetrahydropyrimidin-2-yl)amino)-1H-indazole-6-carboxamido)acetamido)-3-(3-methyl-5-(trifluoromethyl)phenyl)propanoic acid] gave a Papp A→B at 90 min, 10 µM of over 1 ×10⁻⁶ cm/s.
Molecule `O=C(O)C[C@H](NC(=O)CNC(=O)c1cc(NC2=NCC(F)CN2)cc2[nH]ncc12)c1cc(I)cc(C(F)(F)F)c1` (stereo partly drawn) [54-(b), (3S)-3-(2-(6-((5-fluoro-1,4,5,6-tetrahydropyrimidin-2-yl)amino)-1H-indazole-4-carboxamido)acetamido)-3-(3-iodo-5-(trifluoromethyl)phenyl)propanoic acid] has a Papp A→B at 90 min, 10 µM of 0.1 to 0.5 ×10⁻⁶ cm/s.
In the case of `O=C(O)C[C@H](NC(=O)CNC(=O)c1cc(NC2=NCC(F)CN2)c2cn[nH]c2c1)c1cc(C(F)(F)F)ccc1Cl` (stereo partly drawn) [12-(b), (3S)-3-(2-chloro-5-(trifluoromethyl)phenyl)-3-(2-(4-((5-fluoro-1,4,5,6-tetrahydropyrimidin-2-yl)amino)-1H-indazole-6-carboxamido)acetamido)propanoic acid], the Papp A→B at 90 min, 10 µM is reported as over 1 ×10⁻⁶ cm/s.
Molecule `O=C(O)C[C@H](NC(=O)CNC(=O)c1cc(NC2=NCC(F)CN2)c2cn[nH]c2c1)c1cccc(OC(F)(F)F)c1` (stereo partly drawn) [36-(b), (3S)-3-(2-(4-((5-fluoro-1,4,5,6-tetrahydropyrimidin-2-yl)amino)-1H-indazole-6-carboxamido)acetamido)-3-(3-(trifluoromethoxy)phenyl)propanoic acid] has a Papp A→B at 90 min, 10 µM of over 1 ×10⁻⁶ cm/s.
In the case of `O=C(O)C[C@H](NC(=O)CNC(=O)c1cc(NC2=NCC(F)CN2)c2cn[nH]c2c1)c1ccc(F)c(OC(F)F)c1` (stereo partly drawn) [27-(b), (3S)-3-(3-(difluoromethoxy)-4-fluorophenyl)-3-(2-(4-((5-fluoro-1,4,5,6-tetrahydropyrimidin-2-yl)amino)-1H-indazole-6-carboxamido)acetamido)propanoic acid], the Papp A→B at 90 min, 10 µM is reported as over 1 ×10⁻⁶ cm/s.
Work on `O=C(O)C[C@H](NC(=O)CNC(=O)c1cc(NC2=NCC(F)CN2)c2cn[nH]c2c1)c1cc(OC(F)F)cc(-n2cccn2)c1` (stereo partly drawn) [29-(b), (3S)-3-(3-(difluoromethoxy)-5-(1H-pyrazol-1-yl)phenyl)-3-(2-(4-((5-fluoro-1,4,5,6-tetrahydropyrimidin-2-yl)amino)-1H-indazole-6-carboxamido)acetamido)propanoic acid] yielded a Papp A→B at 90 min, 10 µM of 0.1 to 0.5 ×10⁻⁶ cm/s.
Work on `O=C(O)C[C@H](NC(=O)CNC(=O)c1cc(NC2=NCC(F)CN2)c2cn[nH]c2c1)c1ccc(C(F)(F)F)cc1` (stereo partly drawn) [47-(b), (3S)-3-(2-(4-((5-fluoro-1,4,5,6-tetrahydropyrimidin-2-yl)amino)-1H-indazole-6-carboxamido)acetamido)-3-(4-(trifluoromethyl)phenyl)propanoic acid] yielded a Papp A→B at 90 min, 10 µM of over 1 ×10⁻⁶ cm/s.
In the case of `O=C(O)C[C@H](NC(=O)CNC(=O)c1cc(NC2=NCC(F)CN2)cc2[nH]ncc12)c1cc(Cl)cc(C(F)(F)F)c1` (stereo partly drawn) [52-(b), (3S)-3-(3-chloro-5-(trifluoromethyl)phenyl)-3-(2-(6-((5-fluoro-1,4,5,6-tetrahydropyrimidin-2-yl)amino)-1H-indazole-4-carboxamido)acetamido)propanoic acid], the Papp A→B at 90 min, 10 µM is reported as 0.1 to 0.5 ×10⁻⁶ cm/s.
`O=C(O)C[C@H](NC(=O)CNC(=O)c1cc(NC2=NCC(F)CN2)c2cn[nH]c2c1)c1cccc(C(F)(F)F)c1` (stereo partly drawn) [35-(b), (3S)-3-(2-(4-((5-fluoro-1,4,5,6-tetrahydropyrimidin-2-yl)amino)-1H-indazole-6-carboxamido)acetamido)-3-(3-(trifluoromethyl)phenyl)propanoic acid] gave a Papp A→B at 90 min, 10 µM of over 1 ×10⁻⁶ cm/s.
